Reference: patent publication US20260240850A1, “Compositions and Methods for Treating MALT1 Associated Diseases” (Rarefied Biosciences, Inc., priority 2023, published 2026)

How the values were obtained:
[1] = test system: epithelial cells (e.g., HEK293 cells) bearing CARD14 gain-of-function mutations; κB-GFP readout of NFκB signaling; experiment: NF-κB-GFP reporter in epithelial cells transfected with CARD14 gain-of-function cDNA (Example 4); type: cell-based; details: epithelial cells with CARD14 GOF variants; flow cytometry
Protocol: MALT1 inhibitors (e.g., Compounds 1.1, 1.26, 1.27, 1.30, 1.33, 2.1, and/or 2.4) are incubated with epithelial cells (e.g., HEK293 cells) that lack endogenous CARD14 and bear transiently transfected CARD14 cDNA bearing gain-of-function mutations. The epithelial cells include a reporter gene (κB-GFP) that acts as a readout of NFκB signaling. The expression of NF-κB-GFP at baseline and after anti-CD3, or PMA/ionomycin stimulation is measured.
Epithelial cells bearing gain of function variants of CARD14 have elevated baseline activation of NF-κB-GFP, and higher still after stimulation, which is assessed by flow cytometry.

[2] = target: T1, proteolytic function of MALT1 (cleavage of CYLD) (Homo sapiens, UniProt Q9UDY8); experiment: CYLD cleavage in Jurkat cells bearing GOF CARD11 (Example 6); type: cell-based; details: Jurkat cells with GOF E134G, C49Y or G123D CARD11; dose dependent in the range of about 100 nM to 10 μM
T1 construct: endogenous in cells; host or cells: Jurkat cells bearing GOF E134G, C49Y or G123D CARD11
T1 sequence (Q9UDY8 1-824): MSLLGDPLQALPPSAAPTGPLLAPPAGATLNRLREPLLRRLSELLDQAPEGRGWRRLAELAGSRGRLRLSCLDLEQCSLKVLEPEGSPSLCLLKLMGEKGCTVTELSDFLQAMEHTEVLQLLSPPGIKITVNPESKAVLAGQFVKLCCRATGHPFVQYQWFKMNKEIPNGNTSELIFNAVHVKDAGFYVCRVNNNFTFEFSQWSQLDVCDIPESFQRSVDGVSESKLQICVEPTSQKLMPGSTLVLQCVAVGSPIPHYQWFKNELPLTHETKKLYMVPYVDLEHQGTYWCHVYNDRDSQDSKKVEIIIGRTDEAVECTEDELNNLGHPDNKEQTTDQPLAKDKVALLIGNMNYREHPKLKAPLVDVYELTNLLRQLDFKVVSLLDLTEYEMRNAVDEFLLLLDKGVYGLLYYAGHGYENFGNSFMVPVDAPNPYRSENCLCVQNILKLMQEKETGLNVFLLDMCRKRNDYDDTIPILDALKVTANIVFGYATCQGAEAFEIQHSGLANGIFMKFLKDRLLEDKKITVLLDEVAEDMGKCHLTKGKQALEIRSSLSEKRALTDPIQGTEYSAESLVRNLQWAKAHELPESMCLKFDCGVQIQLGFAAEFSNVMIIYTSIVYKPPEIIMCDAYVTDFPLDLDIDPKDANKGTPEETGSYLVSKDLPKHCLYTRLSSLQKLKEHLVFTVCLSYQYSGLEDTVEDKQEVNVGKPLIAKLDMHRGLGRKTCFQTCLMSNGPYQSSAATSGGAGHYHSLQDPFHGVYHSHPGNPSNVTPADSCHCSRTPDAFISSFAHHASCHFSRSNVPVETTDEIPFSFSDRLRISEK
Protocol: Jurkat cells bearing GOF E134G, C49Y, or G123D CARD11 were also assessed for cleavage of CYLD as a measure of the proteolytic function of MALT1. In the absence of inhibitors, the Jurkat cells with the GOF CARD11 mutants cleaved CYLD.

full-length human MALT1 = target: T2, full-length human MALT1 (Homo sapiens, UniProt Q9UDY8); experiment: MALT1 cleavage of HOIL1 (Example 5); type: biochemical; details: HOIL1 0.05 μg/μL with MALT1, 2 h at 37° C.; gel electrophoresis/immunoblot
T2 construct: Recombinant full-length human MALT1 protein was expressed and purified; made in house
T2 sequence (Q9UDY8 1-824): T1 sequence (Q9UDY8 1-824)
Protocol: Recombinant full-length human MALT1 protein was expressed and purified. C-terminal Myc-FLAG-tagged full-length human HOIL1 was obtained from Origene. HOIL1 protein (0.05 μg/μL) is incubated with different concentrations of MALT1 in assay buffer (200 mM Tris-HCl, 0.8 M Na citrate, 0.1 mM EGTA, 0.05% CHAPS, 1 mM DTT, pH 7.4) for 2 h at 37° C. Cleavage of HOIL1 was analyzed by gel electrophoresis using a 4-12% Bis-Tris SDS-polyacrylamide (PAGE) gradient gel (Life Technologies). The presence of a small fragment was confirmed by immunoblotting with an N-terminal antibody (anti-N-terminal HOIL1; HPA024185; Sigma). Total HOIL1 was observed using a C-terminal directed antibody (anti-FLAG, clone M2, Sigma). These assays are performed with both the cleavable HOIL1 and, as a negative control, a non-cleavable HOIL1 (where Lys is substituted for Arg165).

[3] = test system: mTor pathway (e.g., mTORc1 and/or mTORc2) in primary T cells; experiment: mTor pathway activation in stimulated primary T cells, pAkt/pS6 staining (Example 3); type: cell-based; details: primary T cells after anti-CD3/anti-CD28 activation
Protocol: Primary T cells are stimulated to activation and cultured in the presence of IL-2. For stimulation, cells are preincubated with anti-CD3F and anti-CD28 on ice and washed. Cells were stimulated by crosslinking the anti-CD3 antibody with a secondary antibody (e.g., anti-mouse IgG for 10 min) in complete T cell media and then fixed with pre-warmed fixation buffer. Cells are then washed with FACS buffer and permeabilized with permeabilization buffer pre-chilled to −20° C. and incubated for 30 min on ice. Cells are washed and then stained with the following antibodies or appropriate isotype controls anti-pAkt (Ser473) and anti-pS6 (Ser240/244).
MALT1 inhibitors (e.g., Compounds 1.1, 1.26, 1.27, 1.30, 1.33, 2.1, and/or 2.4) are incubated with the primary T cells after activation.

[4] = test system: Jurkat cells engineered with the E134G, C49Y, or G123D CARD11 gain of function (GOF) mutant; κB-GFP readout of NFκB signaling; experiment: NF-κB-GFP reporter in Jurkat cells engineered with CARD11 gain of function mutants (Example 6); type: cell-based; details: C49Y or G123D CARD11, all three mutants, dose dependent from about 100 nM to 5 μM
Protocol: Jurkat cells were engineered with the E134G, C49Y, or G123D CARD11 gain of function (GOF) mutant. The Jurkat cells included a reporter gene (κB-GFP) that acts as a readout of NFκB signaling.
Jurkat cells bearing GOF E134G, C49Y, or G123D CARD11 had elevated baseline activation of NF-κB-GFP. MALT1 inhibitors (e.g., Compound 1.1 or 2.4) were incubated with the above engineered Jurkat cells.

patients with BENTA = experiment: Clinical trial of MALT1 inhibitors for BENTA (Example 2); type: in vivo; details: oral once daily, 25 mg/day up to 1000 mg/day
Protocol: MALT1 inhibitors (e.g., Compounds 1.1, 1.26, 1.27, 1.30, 1.33, 2.1, and/or 2.4) are used to treat patients with BENTA. MALT1 inhibitors (e.g., Compounds 1.1, 1.26, 1.27, 1.30, 1.33, 2.1, and/or 2.4) are formulated in an oral dosage form and administered to patients once daily at a starting dose of 25 mg/day. Alternatively, the daily dose is escalated from 25 mg/day to 1000 mg/day.

[5] = test system: T cells that lack endogenous CARD11 and bear transfected CARD11 gain-of-function mutations; κB-GFP readout of NFκB signaling; experiment: NF-κB-GFP reporter in T cells transfected with CARD11 gain-of-function cDNA (Example 1); type: cell-based; details: T cells with CARD11 GOF variants; baseline and after anti-CD3 or PMA/ionomycin; flow cytometry
Protocol: MALT1 inhibitors (e.g., Compounds 1.1, 1.26, 1.27, 1.30, 1.33, 2.1, and/or 2.4) are incubated with T cells that lack endogenous CARD11 and bear transiently transfected CARD11 cDNA bearing gain-of-function mutations. An optional variation is co-transfecting 50:50 a copy of the wildtype CARD11 gene with the CARD11 gain of function mutant. The T-cells include a reporter gene (κB-GFP) that acts as a readout of NFκB signaling. The expression of NF-κB-GFP at baseline and after anti-CD3, or PMA/ionomycin stimulation is measured.
T-Cells bearing GOF variants of CARD11 have elevated baseline activation of NF-κB-GFP, and higher still after stimulation, which is assessed by flow cytometry.

**Q.** CO[C@@H](C)c1c(Nc2ccc([C@H](N(C)C(=O)C3CCS(=O)(=O)CC3)C(F)(F)F)cc2)cnc2nc(Cl)nn12 [Compound 1.1, N-[(1S)-1-[4-({2-chloro-7-[(1S)-1-methoxyethyl]-[1,2,4]triazolo[1,5-a]pyrimidin-6-yl}amino)phenyl]-2,2,2-trifluoroethyl]-N-methyl-1,1-dioxo-1λ^6-thiane-4-carboxamide] was tested. Which NF-κB-GFP expression [1] did it give?
**A.** lowered NF-κB-GFP expression

**Q.** What about the CYLD cleavage [2] of the same compound?
**A.** suppress this CYLD cleavage in a dose dependent manner

**Q.** And the “cleavage of HOIL1” value (full-length human MALT1)?
**A.** cleavage of HOIL1 is reduced

**Q.** What about the “mTor pathway (mTORc1 and/or mTORc2) activation” value [3] of the same compound?
**A.** suppress mTor pathway (e.g., mTORc1 and/or mTORc2) activation

**Q.** And the NF-κB-GFP expression [4]?
**A.** reduced NF-κB-GFP expression in a dose dependent fashion

**Q.** And the BENTA symptoms (patients with BENTA)?
**A.** amelioration of their BENTA symptoms

**Q.** What about the “Jun/Fos, NF-κB and/or mTor pathway activation in patients” value (patients with BENTA) of the same compound?
**A.** reduced Jun/Fos, and/or NF-κB and/or a mTor pathway (e.g., mTORc1 and/or mTORc2) activation

**Q.** And the NF-κB-GFP expression [5]?
**A.** lowered NF-κB-GFP expression

**Q.** What does the source list for CN(C(=O)[C@H]1CC[C@H](C(=O)O)CC1)[C@@H](c1ccc(Nc2cnn(-c3ccccn3)c2C(F)(F)F)cc1)C(F)(F)F [Compound 2.4]?
**A.** NF-κB-GFP expression [1]: lowered NF-κB-GFP expression; CYLD cleavage [2]: suppress this CYLD cleavage in a dose dependent manner; cleavage of HOIL1 (full-length human MALT1): cleavage of HOIL1 is reduced; mTor pathway (mTORc1 and/or mTORc2) activation [3]: suppress mTor pathway (e.g., mTORc1 and/or mTORc2) activation; NF-κB-GFP expression [4]: reduced NF-κB-GFP expression in a dose dependent fashion; BENTA symptoms (patients with BENTA): amelioration of their BENTA symptoms; Jun/Fos, NF-κB and/or mTor pathway activation in patients (patients with BENTA): reduced Jun/Fos, and/or NF-κB and/or a mTor pathway (e.g., mTORc1 and/or mTORc2) activation; NF-κB-GFP expression [5]: lowered NF-κB-GFP expression
